The experiment addresses T1, AaCPS1 (β-caryophyllene synthase) (Artemisia annua, UniProt A0A059PYD5).
T1 construct: gene CPS; C-terminal 6xHis tag kept; transient expression in Nicotiana benthamiana (pEAQ-HT)
Nature of the experiment: GC-MS of dodecane overlay. The format is biochemical. The conditions noted are these: 20 µM FPP, 20 mM MgCl2, 20 mM Tris-HCl pH 7.0, 10% glycerol, 2 mM DTT, 30 °C, 4 h; products β-caryophyllene (main) and α-humulene.

T1 sequence (A0A059PYD5 1-550): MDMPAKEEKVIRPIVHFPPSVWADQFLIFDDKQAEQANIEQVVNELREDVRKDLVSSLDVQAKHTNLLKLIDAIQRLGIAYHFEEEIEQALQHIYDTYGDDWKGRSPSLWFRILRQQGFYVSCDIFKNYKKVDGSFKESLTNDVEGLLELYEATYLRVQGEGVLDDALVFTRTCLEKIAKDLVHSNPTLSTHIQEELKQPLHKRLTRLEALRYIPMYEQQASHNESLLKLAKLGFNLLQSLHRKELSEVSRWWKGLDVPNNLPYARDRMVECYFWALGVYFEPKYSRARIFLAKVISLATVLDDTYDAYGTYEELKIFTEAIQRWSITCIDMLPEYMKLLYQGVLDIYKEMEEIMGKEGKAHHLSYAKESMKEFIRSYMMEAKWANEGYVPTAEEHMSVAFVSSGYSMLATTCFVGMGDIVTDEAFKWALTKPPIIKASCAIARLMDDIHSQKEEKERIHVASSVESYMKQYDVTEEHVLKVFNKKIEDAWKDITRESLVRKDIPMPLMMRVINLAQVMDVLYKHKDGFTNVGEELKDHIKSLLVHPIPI

Consider `CC(C)=CCC/C(C)=C/CC/C(C)=C/COP(=O)(O)OP(=O)(O)O` [FPP, farnesyl diphosphate], for which the “GC-MS of dodecane overlay” value was “the purified AaCPS1 was incubated with the substrate FPP”.

Source of the values: publication PMC7194099, “Transient expression and purification of β-caryophyllene synthase in Nicotiana benthamiana to produce β-caryophyllene in vitro” (PeerJ, 2020).
